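Five compound concentrations were applied to cells in 96-well plates for 48 hours; endpoints were derived by simple linear interpolation of the resulting dose-response curve. TGI denotes the concentration required for complete inhibition of growth.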
Assays:
Test in all cases: NCI-60 cell line screen, 48 h
786-0 renal = tested on: 786-0 renal
A549 NSCLC = tested on: A549 NSCLC
CAKI-1 renal = tested on: CAKI-1 renal
CCRF-CEM leukemia = tested on: CCRF-CEM leukemia
HT29 colon = tested on: HT29 colon
LOX IMVI melanoma = tested on: LOX IMVI melanoma
MCF7 breast = tested on: MCF7 breast
MDA-N = tested on: MDA-N
MOLT-4 leukemia = tested on: MOLT-4 leukemia
NCI-H226 lung = tested on: NCI-H226 lung
OVCAR-3 ovarian = tested on: OVCAR-3 ovarian
OVCAR-5 ovarian = tested on: OVCAR-5 ovarian
PC-3 prostate = tested on: PC-3 prostate
RPMI-8226 leukemia = tested on: RPMI-8226 leukemia
RXF 393 renal = tested on: RXF 393 renal
SF-268 CNS = tested on: SF-268 CNS
SK-MEL-28 melanoma = tested on: SK-MEL-28 melanoma
SN12C renal = tested on: SN12C renal
SNB-19 CNS = tested on: SNB-19 CNS
UACC-62 melanoma = tested on: UACC-62 melanoma

Row | SMILES | TGI (786-0 renal) [µM] | TGI (A549 NSCLC) [µM] | TGI (CAKI-1 renal) [µM] | TGI (CCRF-CEM leukemia) [µM] | TGI (HT29 colon) [µM] | TGI (LOX IMVI melanoma) [µM] | TGI (MCF7 breast) [µM] | TGI (MDA-N) [µM] | TGI (MOLT-4 leukemia) [µM] | TGI (NCI-H226 lung) [µM] | TGI (OVCAR-3 ovarian) [µM] | TGI (OVCAR-5 ovarian) [µM] | TGI (PC-3 prostate) [µM] | TGI (RPMI-8226 leukemia) [µM] | TGI (RXF 393 renal) [µM] | TGI (SF-268 CNS) [µM] | TGI (SK-MEL-28 melanoma) [µM] | TGI (SN12C renal) [µM] | TGI (SNB-19 CNS) [µM] | TGI (UACC-62 melanoma) [µM]
1 | C[N+]12CCCCC1C(COc1cccc3cccnc13)CCC2 (configuration not stated) | > 100 | > 100 | > 100 | > 100 | > 100 | > 100 | > 100 | > 100 | > 100 | > 100 | > 100 | > 100 | > 100 | > 100 | > 100 | > 100 | > 100 | > 100 | > 100 | > 100
2 | CC1=CC[C@H](C[C@H](C#CCCCC2OCCO2)O[Si](C(C)C)(C(C)C)C(C)C)C(=O)CC1 | > 100 | > 100 | > 100 | > 100 | > 100 | > 100 | > 100 | > 100 | > 100 | > 100 | > 100 | > 100 | > 100 | > 100 | > 100 | > 100 | > 100 | > 100 | > 100 | > 100
3 | CC(=O)Nc1ccc(-c2nc3ccccc3s2)cc1Br | > 100 | > 100 | > 88.1 | > 100 | > 100 | > 100 | > 100 | > 100 | > 100 | > 94.7 | > 100 |  | > 100 | > 100 | 66 | > 100 | > 100 | > 100 | > 93.4 | > 100
4 | COC(=O)C(=O)C(C(=O)C(=O)Nc1ccccc1C(N)=O)c1nc2ccc(Cl)cc2[nH]c1=O (configuration not stated) | > 100 | > 100 | > 100 | > 100 | > 100 | > 100 | > 100 | > 100 | > 100 | > 100 | > 100 | > 100 | > 100 | > 100 | > 100 | > 100 | > 100 | > 100 | > 100 | > 100
5 | Cc1sc2nc(N(C)C)oc(=O)c2c1C | > 100 | > 100 | > 100 | > 100 | > 100 | > 100 | > 100 | > 100 | > 100 | > 100 |  | > 100 | > 100 | > 100 | > 100 | > 100 | > 100 | > 100 | > 100 | > 100
6 | CC(=O)O[C@H]1C(=O)[C@@]2(C)[C@H]([C@H](OC(=O)c3ccccc3)[C@]3(O)C[C@H](OC(=O)[C@H](O)[C@@H](NC(=O)c4ccc(N)cc4)c4ccccc4)C(C)=C1C3(C)C)[C@]1(OC(C)=O)CO[C@@H]1C[C@@H]2O | > 50 | > 50 | > 50 | > 23.7 |  | > 50 | > 50 | < 0.005 | > 29.5 | 0.00862 | 0.0224 | > 50 | > 50 | < 0.005 | > 50 | > 50 | > 50 |  | > 50 | > 50
7 | CC1(C)C2CC(O)C1(C)CC2=O (configuration not stated) | > 100 | > 100 |  | > 100 | > 100 | > 100 | > 100 | > 100 | > 100 | > 100 | > 100 | > 100 | > 100 | > 100 | > 100 | > 100 | 14.8 | > 100 | > 100 | > 100
8 | O=C1c2c(Br)sc(Br)c2C(NC(=O)C(F)(F)F)C1O (configuration not stated) | 36.7 | 58.5 | 31.4 | 56.3 | 53.6 | 44.5 | 45.3 | 40.4 | > 100 | 79.8 | 43.7 | 39.6 | 74.9 |  | 27.5 | > 100 | 43.7 | 34.1 | 56.4 | 40.8
9 | CC(C)(C)c1cc(S(=O)(=O)O)c2oc(-c3ccccc3)cc(=O)c2c1 | > 100 | > 100 | > 100 | > 100 | > 100 | > 100 | > 100 | > 100 | > 100 | > 100 | > 100 |  | > 100 | > 100 | > 100 | > 100 | > 100 | > 100 | > 100 | 
10 | Cc1cccc2nc(-c3ccccc3)cc(=O)n12 | > 100 | > 100 |  | > 100 | > 100 |  | > 100 | > 100 | > 100 | > 100 | > 100 | > 100 | > 100 | > 100 | > 100 | > 100 | > 100 | > 100 | > 100 | > 100
11 | COC(=O)C1=CC2C(=O)c3ccccc3C1(c1ccccc1)N2C1CCCCC1 (configuration not stated) | > 100 | > 100 | 46.1 | > 100 | > 100 | 52.3 | 36.8 | > 100 | > 100 | 84.1 | 95 | > 100 | > 100 |  | 24.6 | > 100 | 41.4 | > 100 | > 100 | 
12 | NCc1ccc(-c2ccc(CN)s2)s1 | > 100 | > 100 | > 100 | > 100 | > 100 | > 100 | > 100 | > 100 | > 100 | > 100 | > 100 | > 100 | > 100 | > 100 | > 100 |  | > 100 | > 100 | > 100 | > 100
13 | COc1cc(C(=O)NNC(=O)c2cc(Br)ccc2NC(=O)c2cccs2)cc(OC)c1OC | 45.4 | 61.3 | > 100 | > 100 | 41.1 | 37.1 | 52.1 | 74.9 | > 100 | 36.5 | > 100 | 45.3 | > 100 | 43.5 | 29.1 | 29.3 |  | 60.3 | 74.3 | 34.1
14 | C/C(Cl)=N/OC(=O)Nc1ccc(F)c([N+](=O)[O-])c1 | 16.5 | > 58.7 | 3.69 |  | > 52.7 | 18.5 | > 49 | 35.1 | 3.9 | 70.1 | 35.8 | > 53.4 | 33.2 | > 25.7 | 25.4 | 32.8 | 37.1 | 19.4 | 37.3 | > 63.2
15 | O=S(=O)(/N=S(/Nc1ccccc1)C(Cl)Cl)c1ccccc1 (configuration not stated) | > 100 | > 100 |  | > 100 | > 100 | > 100 | > 100 | > 100 | > 100 | > 100 | > 100 | > 100 | > 100 | > 100 | > 100 | > 100 | > 100 | > 100 | > 100 | > 100
16 | CC(C)CCCC(C)[C@H]1CC[C@H]2n3c(nnc3-c3ccccc3)CCC[C@]12C (some centres not stated) | 34.8 | 28 | 29.7 | 24.6 | 60.5 | 12.5 | 20.7 | 31 | 13.2 | 37.5 | 25.2 |  | 44.9 | 21.1 | 27 | 28.2 | 37.1 | 27.5 | 28.2 | 27.3
17 | OC1=C2c3ccccc3NC2Oc2cc(F)ccc21 (configuration not stated) | 29.9 | 52.7 | 48.4 | 7.21 | 38 | 39.3 | > 100 | 31.4 | 34.5 | 89.5 | 27.9 | 38.2 | 41.4 |  | 38.3 | 40.3 | > 100 | 25.9 | 44.6 | 34.7
18 | Cc1ccc(-c2c(C#N)c(-c3ccccc3)n(NS(=O)(=O)c3ccc(C)cc3)c(=O)c2C#N)cc1 | > 100 | > 100 | > 100 | 80.3 | > 100 | > 100 | > 100 | > 100 | 54.5 | > 100 |  | > 100 | > 100 | 31.6 | > 100 | > 100 | > 100 | > 100 | > 100 | > 100
19 | Cc1c(N=Nc2ccccc2)c(-c2ccccc2)n(C2OC(CO)C(O)C(O)C2O)c(=S)c1C#N (configuration not stated) | 18.8 | 21.5 |  |  | 29.7 | 12.4 | 17.1 | 20.1 | 24.5 | 28.5 | 18 | 28.9 | 15.6 | > 100 | 10.3 | 37 | 19.6 | 28.5 | 27.8 | 13
20 | COC(=O)/C(C)=N/NC(=S)SC | > 100 |  | > 100 | 11 | > 100 | > 100 | > 100 | > 100 | > 100 | > 100 | > 100 | > 100 | > 100 | > 100 | 97 | > 100 | > 100 |  |  | 
21 | C=CC(C)(C)n1cc(C2=C3OC(=O)C(c4cn(C(C)(C)C=C)c5ccccc45)=C3OC2=O)c2ccccc21 | > 100 | > 100 | > 100 | > 100 | > 100 | > 100 | > 100 | > 100 | > 100 | > 100 | > 100 | > 100 | > 100 | > 100 | > 100 | > 100 | > 100 | > 100 | > 100 | 
22 | O=C(CC(O)(C(F)(F)F)C(F)(F)F)C(c1ccccc1)C(O)(C(F)(F)F)C(F)(F)F (configuration not stated) | > 100 | > 100 | > 100 | > 100 | > 100 | > 100 | > 100 | > 100 | > 100 | > 100 | 83.4 | > 100 | > 100 | > 100 | 25.2 |  | > 100 |  | > 100 | > 100
23 | CCOC(=O)/C(C#N)=C/Nc1c(C)n(C)n(-c2ccccc2)c1=O | > 100 | > 100 | > 100 | > 100 |  | > 100 | > 100 | > 100 | > 100 | > 100 | > 100 | > 100 | > 100 | > 100 | > 100 |  |  | > 100 |  | > 100
24 | C[C@]12CC[C@H]3[C@@H](CCC4=CC(=O)CC[C@@H]43)[C@@H]1CC[C@]2(O)C(N)=O | > 100 | > 100 |  | > 100 | > 100 | > 100 | > 100 | > 100 | > 100 | > 100 | > 100 | > 100 | > 100 | > 100 | > 100 | > 100 | > 100 | > 100 | > 100 | > 100

— PubChem BioAssay (NCI)
